According to patent publication US20090082406A1, “Cancer Therapy” (National Health Research Institutes, priority 2004, published 2009):

Assays:
[1] = tested on: DBTRG 05MG cells (human glioblastoma cells); assay: sulforhodamine assay of cell numbers, DBTRG 05MG cells; assay type: cell-based; details: 6 days
Protocol: DBTRG 05MG cells (human glioblastoma cells) were treated for 6 days with 0.5 μM of lovastatin (Clabiochem) alone and 10 μM of troglitazone (Clabiochem) alone. Cell numbers were then measured by the sulforhodamine assay (see, e.g., Rubinstein, L. V. et al., J. Natl. Cancer Institute, 1990, 82: 113).
The same cells were also treated with combinations of lovastatin and troglitazone at various ratios. The combination index values were calculated.
DBTRG 05MG cells were treated for 6 days with lovastatin (0.5 μM), troglitazone (10 μM), and mevalonolacetone (100 μM), the downstream product of […]. Cell numbers were measured by the sulforhodamine assay (see, e.g., Rubinstein, L. V. et al., J. Natl. Cancer Institute, 1990, 82: 113).

cyclin A = assay: Western blotting assay of cyclin A in DBTRG 05MG cells; assay type: cell-based, human; details: 3 days, lovastatin (1 μM) alone
Protocol: (§1) Cell cycle-regulating proteins, cyclin-dependent kinase 2 (CDK-2), cyclin A, Rb protein, and p27^kip1 were tested to determine the effect of lovastain and troglitazone on regulating the cell cycle. Note that p27^kip1 is a universal CDK inhibitor and can modulate the drug resistance of cancer cells (Lloyd, R. V., Am. J. Pathol. 1999, 154: 313-323). Rb binds to many proteins, including several important gene regulatory proteins. Its binding capacity depends on its state of phosphoration. When Rb is dephosphorated, it binds to a set of regulatory proteins (e.g., E2F-1) that favor cell proliferation; and when phosphorated, it releases these proteins, thereby allowing them to act. […] The concentrations of cyclin-dependent kinase 2 (CDK-2), cyclin A, p27^kip1, Rb protein, and E2F-1 were determined by the Western blotting assay. Briefly, whole cell lysates were prepared with a radioimmunoprecipitation buffer supplemented with protease inhibitors (Sigma). The lysates were subjected to a sodium dodecylsulfate-polyacrylamide gel electrophoresis and transferred to polyvinylidene difluoride membranes (Bio-Rad) by electroblotting. After having been blocked for 1 hour at room temperature, the membranes were probed with a primary antibody overnight at 4° C. and then with a horseradish peroxidase-conjugated secondary antibody for 1 hour. […]

E2F-1 = assay: Western blotting assay of E2F-1 in DBTRG 05MG cells; assay type: cell-based, human; details: 3 days, lovastatin (1 μM) alone
Protocol: as §1

[2] = tested on: cyclin-dependent kinase 2 (CDK-2); assay: Western blotting assay of CDK-2 in DBTRG 05MG cells; assay type: cell-based, human; details: 3 days, lovastatin (1 μM) alone
Protocol: as §1

Rb protein = assay: Western blotting assay of Rb and phosphor-Rb (Ser807/811) in DBTRG 05MG cells; assay type: cell-based, human; details: 3 days, lovastatin (1 μM) alone
Protocol: as §1

p27^kip1 = assay: Western blotting assay of p27^kip1 in DBTRG 05MG cells; assay type: cell-based, human; details: 3 days, lovastatin (1 μM) alone
Protocol: as §1

## Cc1c(C)c2c(c(C)c1O)CCC(C)(COc1ccc(CC3SC(=O)NC3=O)cc1)O2 (centres unmarked) [troglitazone]
[1]; 10 μM of troglitazone alone
  cell number decrease: 11%

## C[C@@]1(O)CCOC(=O)C1 [mevalonolacetone]
[1]; lovastatin (0.5 μM), troglitazone (10 μM), mevalonolacetone (100 μM)
  effect of added mevalonolacetone on the synergistic effect of lovastatin and troglitazone on cell numbers: significantly attenuated

## CC[C@H](C)C(=O)O[C@H]1C[C@@H](C)C=C2C=C[C@H](C)[C@H](CC[C@@H]3C[C@@H](O)CC(=O)O3)[C@H]21 [lovastatin]
Cyclin A
  level of cyclin A: little or no change
E2F-1
  level of E2F-1: little or no change
[1]; 0.5 μM of lovastatin alone
  cell number decrease: 9.7%
[2]
  level of CDK-2: little or no change
Rb protein
  level of Rb: little or no change
p27^kip1
  level of p27^kip1: little or no change
